Source: patent publication US12281119B2, “Imidazo[2,1-f][1,2,4]triazin-4-amine derivatives as TLR7 agonist” (BEIGENE, LTD., priority 2019, dated 2025)

Columns and labels:
human TLR 8 protein = molecular target: T1, human TLR 8 protein (Homo sapiens, UniProt Q9NR97); experiment: TLR8 stimulation determined using HEK-Blue Detection; type: cell-based; conditions: HEK-Blue hTLR8 cells, 16 hr, relative to Resiquimod or Motolimod maximum
T1 construct: expressed in transfected cells; host or cells: HEK293 (HEK-Blue hTLR8)
T1 sequence (Q9NR97 27-1041): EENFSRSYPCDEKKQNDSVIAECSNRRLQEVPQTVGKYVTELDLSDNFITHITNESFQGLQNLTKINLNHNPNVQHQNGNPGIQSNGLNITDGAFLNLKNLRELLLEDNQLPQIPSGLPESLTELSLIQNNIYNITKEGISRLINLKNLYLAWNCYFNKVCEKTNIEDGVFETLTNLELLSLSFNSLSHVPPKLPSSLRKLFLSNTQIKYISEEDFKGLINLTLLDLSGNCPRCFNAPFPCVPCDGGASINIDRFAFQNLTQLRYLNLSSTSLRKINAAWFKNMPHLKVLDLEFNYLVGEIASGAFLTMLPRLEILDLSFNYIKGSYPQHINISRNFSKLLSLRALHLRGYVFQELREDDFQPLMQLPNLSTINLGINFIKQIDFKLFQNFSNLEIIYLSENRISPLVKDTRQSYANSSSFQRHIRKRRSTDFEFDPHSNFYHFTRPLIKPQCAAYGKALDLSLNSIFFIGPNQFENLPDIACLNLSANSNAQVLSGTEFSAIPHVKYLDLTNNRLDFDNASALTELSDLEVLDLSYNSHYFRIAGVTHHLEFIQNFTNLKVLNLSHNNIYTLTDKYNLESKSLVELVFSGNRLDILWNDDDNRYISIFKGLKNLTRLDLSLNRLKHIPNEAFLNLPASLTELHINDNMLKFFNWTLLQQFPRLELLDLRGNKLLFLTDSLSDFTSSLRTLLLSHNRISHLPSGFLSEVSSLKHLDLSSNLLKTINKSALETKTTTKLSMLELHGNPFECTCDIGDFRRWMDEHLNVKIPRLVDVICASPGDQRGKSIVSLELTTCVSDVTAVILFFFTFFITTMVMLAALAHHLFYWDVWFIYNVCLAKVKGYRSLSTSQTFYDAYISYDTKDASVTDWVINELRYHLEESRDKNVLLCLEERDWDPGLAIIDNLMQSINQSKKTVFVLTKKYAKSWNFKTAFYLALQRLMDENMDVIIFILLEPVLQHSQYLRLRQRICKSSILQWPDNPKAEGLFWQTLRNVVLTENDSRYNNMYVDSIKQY
Outline: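 HEK-Blue hTLR8 cells with NF-κB/AP-1-driven SEAP reporter, 40000 cells/well, treated with 10-point dilutions (1 nM-10 uM final, 0.1% DMSO) for 16 hr at 37° C. SEAP read as OD 620-655 nm. EC50 derived from percent of maximum activation set by Resiquimod or Motolimod.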

human TLR7 = molecular target: T2, human TLR7 (Homo sapiens, UniProt Q9NYK1); experiment: TLR7 stimulation determined using HEK-Blue Detection; type: cell-based; parameters: expressed in transfected cells; host or cells: HEK293 (HEK-Blue hTLR7); conditions: HEK-Blue hTLR7 cells, HEK-Blue Detection (A77-A124), 16 hr, relative to Resiquimod maximum
T2 sequence (Q9NYK1 27-1049): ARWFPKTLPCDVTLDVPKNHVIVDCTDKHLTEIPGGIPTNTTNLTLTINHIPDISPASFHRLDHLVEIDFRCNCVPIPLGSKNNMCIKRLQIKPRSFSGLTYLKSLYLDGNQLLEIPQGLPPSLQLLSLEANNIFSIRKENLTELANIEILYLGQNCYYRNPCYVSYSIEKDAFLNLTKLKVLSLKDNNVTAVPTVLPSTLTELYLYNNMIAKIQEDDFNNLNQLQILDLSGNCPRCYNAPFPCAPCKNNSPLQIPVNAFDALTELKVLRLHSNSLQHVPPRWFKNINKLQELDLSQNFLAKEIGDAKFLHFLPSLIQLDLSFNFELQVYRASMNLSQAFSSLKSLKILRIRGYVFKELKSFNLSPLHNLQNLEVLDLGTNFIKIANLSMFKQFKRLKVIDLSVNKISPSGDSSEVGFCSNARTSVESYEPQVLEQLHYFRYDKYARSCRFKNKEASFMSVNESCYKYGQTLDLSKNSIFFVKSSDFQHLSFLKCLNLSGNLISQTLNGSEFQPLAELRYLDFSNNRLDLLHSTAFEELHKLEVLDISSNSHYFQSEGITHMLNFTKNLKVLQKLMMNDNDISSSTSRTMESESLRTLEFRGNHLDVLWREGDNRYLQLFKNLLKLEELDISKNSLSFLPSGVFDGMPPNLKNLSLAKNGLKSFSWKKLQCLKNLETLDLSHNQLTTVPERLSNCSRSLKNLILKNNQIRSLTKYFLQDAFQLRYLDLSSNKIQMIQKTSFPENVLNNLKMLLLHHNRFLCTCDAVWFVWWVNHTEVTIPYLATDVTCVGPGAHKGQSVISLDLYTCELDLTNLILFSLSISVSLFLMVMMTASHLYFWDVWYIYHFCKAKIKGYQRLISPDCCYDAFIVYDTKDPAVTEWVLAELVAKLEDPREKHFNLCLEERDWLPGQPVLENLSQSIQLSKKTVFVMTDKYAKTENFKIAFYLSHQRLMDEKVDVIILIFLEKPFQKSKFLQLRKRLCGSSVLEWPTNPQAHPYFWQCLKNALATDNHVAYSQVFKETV
Outline: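 HEK-Blue hTLR7 cells (HEK293 with NF-κB/AP-1-driven SEAP reporter), 40000 cells/well, treated with 10-point dilutions from 0.04 nM to 10 μM final in 0.1% DMSO for 16 h at 37° C. SEAP read as OD 620-655 nm; EC50 derived from % of maximum activation with resiquimod.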

Row | SMILES | EC50 (human TLR 8 protein) | EC50 (human TLR7)
1 | CCCC(CCC)Oc1nc(N)c2ncc(Cc3ccc(OCCNC)nc3)n2n1 [Compound A87, 2-(heptan-4-yloxy)-7-((6-(2-(methylamino)ethoxy)pyridin-3-yl)methyl)imidazo[2,1-f][1,2,4]triazin-4-amine] | 434 nM | 10.5 nM
2 | CNCCOc1ccc(Cc2cnc3c(N)nc(OCC4CCCO4)nn23)cn1 (centres unmarked) [Compound A88, 7-((6-(2-(methylamino)ethoxy)pyridin-3-yl)methyl)-2-((tetrahydrofuran-2-yl)methoxy)imidazo[2,1-f][1,2,4]triazin-4-amine] | > 10000 nM | > 10000 nM
3 | CC[C@H](C)Oc1nc(N)c2ncc(Cc3ccc(OCCNC)nc3)n2n1 [Compound A89, (S)-2-(sec-butoxy)-7-((6-(2-(methylamino)ethoxy)pyridin-3-yl)methyl)imidazo[2,1-f][1,2,4]triazin-4-amine] | 199 nM | 10 nM
4 | CCC[C@H](C)Oc1nc(N)c2ncc(Cc3ccc(OCCNC)nc3)n2n1 [Compound A90, (S)-7-((6-(2-(methylamino)ethoxy)pyridin-3-yl)methyl)-2-(pentan-2-yloxy)imidazo[2,1-f][1,2,4]triazin-4-amine] | 112 nM | 8.9 nM
5 | CCCC(CCO)Oc1nc(N)c2ncc(Cc3ccc(OCCNC)c(F)c3)n2n1 (centres unmarked) [Compound A91, 3-((4-amino-7-(3-fluoro-4-(2-(methylamino)ethoxy)benzyl)imidazo[2,1-f][1,2,4]triazin-2-yl)oxy)hexan-1-ol] | 15 nM | 2.1 nM
6 | CCCC(CCO)Oc1nc(N)c2ncc(Cc3ccc(N(C)CCNC)cc3)n2n1 (centres unmarked) [Compound A94, 3-((4-amino-7-(4-(methyl(2-(methylamino)ethyl)amino)benzyl)imidazo[2,1-f][1,2,4]triazin-2-yl)oxy)hexan-1-ol] | 146 nM | 13.8 nM
7 | CCCC(CCO)Oc1nc(N)c2ncc(Cc3ccc(CCNC)cc3)n2n1 (centres unmarked) [Compound A95, 3-((4-amino-7-(4-(2-(methylamino)ethyl)benzyl)imidazo[2,1-f][1,2,4]triazin-2-yl)oxy)hexan-1-ol] | 19 nM | 8 nM
8 | CCCC(CCO)Oc1nc(N)c2ncc(Cc3ccc(OCCNC)nc3OC)n2n1 (centres unmarked) [Compound A96, 3-((4-amino-7-((2-methoxy-6-(2-(methylamino)ethoxy)pyridin-3-yl)methyl)imidazo[2,1-f][1,2,4]triazin-2-yl)oxy)hexan-1-ol] | 29 nM | 4.3 nM
9 | CCCC(CCO)Oc1nc(N)c2ncc(Cc3ccc(OCCNC)cc3F)n2n1 (centres unmarked) [Compound A97, 3-((4-amino-7-(2-fluoro-4-(2-(methylamino)ethoxy)benzyl)imidazo[2,1-f][1,2,4]triazin-2-yl)oxy)hexan-1-ol] | 10 nM | 1 nM
10 | CCCC(CCO)Oc1nc(N)c2ncc(Cc3ccc(OCCNC)c(OC)c3)n2n1 (centres unmarked) [Compound A98, 3-((4-amino-7-(3-methoxy-4-(2-(methylamino)ethoxy)benzyl)imidazo[2,1-f][1,2,4]triazin-2-yl)oxy)hexan-1-ol] | 163 nM | 11 nM
11 | CCC[C@H](C)Oc1nc(N)c2ncc(Cc3ccc(OCCNC)c(F)c3)n2n1 [Compound A99, (S)-7-(3-fluoro-4-(2-(methylamino)ethoxy)benzyl)-2-(pentan-2-yloxy)imidazo[2,1-f][1,2,4]triazin-4-amine] | 129 nM | 14.4 nM
12 | CCC[C@H](C)Oc1nc(N)c2ncc(Cc3ccc(OCCNC)cc3)n2n1 [Compound A100, (S)-7-(4-(2-(methylamino)ethoxy)benzyl)-2-(pentan-2-yloxy)imidazo[2,1-f][1,2,4]triazin-4-amine] | 195 nM | 15 nM
13 | CCCC(CCO)Oc1nc(N)c2ncc(Cc3ccc(OCCNC)c(Cl)c3)n2n1 (centres unmarked) [Compound A102, 3-((4-amino-7-(3-chloro-4-(2-(methylamino)ethoxy)benzyl)imidazo[2,1-f][1,2,4]triazin-2-yl)oxy)hexan-1-ol] | 134 nM | 3.7 nM
